Results reported in patent publication US12162913B2 (priority 2016, dated 2024).
“Also recorded” adds a separate entry of the source. Read-outs that look alike come from different tables or passages of the source.

Key:
[1] = biological target: R. microplus nAChRα6 (Rma6) homopentamers (Rhipicephalus microplus, UniProt A0A223PM23); test: Two-electrode voltage clamp on Xenopus oocytes expressing Rmα6 homopentamers; type: cell-based
Experimental: (§1) The plasmids containing the sequences of choice were linearized using BeuI (Spel) FastDigest (ThermoFisher) restriction enzyme for 30 min at 37°, and an aliquot run on an agarose gel to check for complete linearization. The plasmid DNA was phenol:chloroform purified and ethanol precipitated. The pellet was re-suspended in deionized water. Capped RNA was synthesized using mMessage mMachine T7 kit from 1 μg linearized plasmid DNA, the sample phenol:chloroform purified and isopropanol precipitated. The pellet was re-suspended in deionized water to a concentration of 500 ng/μl, analysed on an agarose gel for integrity and stored at −80° C. until further use.
(§2) Xenopus laevis oocytes were purchased as whole ovaries from the European Xenopus Resource Centre (University of Portsmouth), delivered in less than 24 h in Modified Barth's Saline (MBS) on wet ice. Upon arrival, the oocytes were treated with 2 mg/ml collagenase type I (Sigma-Aldrich) in calcium-free Barth's solution (NaCl 88 mM, Tris-HCl 15 mM, NaHCO32.4 mM, MgCl2 0.82 mM, KCl 1 mM, pH 7.5) for 30 min at room temperature. The separated oocytes were rinsed thoroughly in calcium-free Barth's solution, manually de-folliculated and injected using a Drummond microinjector with 25 ng/oocyte capped RNA. The oocytes were incubated at 18° C. in calcium-containing ([…]) Barth's solution supplemented with 4 μg/ml Kanamycin, 50 μg/ml Tetracycline, 100 U/ml Penicillin and 100 μg/ml Streptomycin. Two-electrode voltage clamp recordings were performed after 3-5 days using an OC-725C oocyte clamp (Warner instruments) with the membrane potential clamped at −60 mV. The oocytes were continuously perfused with frog Ringer's solution (NaCl 115 mM, KCl 2.5 mM, CaCl2) 1.8 mM and HEPES 10 mM) and the dilutions of ligands prepared in Ringer's saline applied using a VC-8 multi-valve perfusion system (Warner Instruments). Following ligand application, the current required to maintain the membrane potential at −60 mV was measured and used for subsequent data analysis.
(§3) Two-electrode voltage clamp electrophysiology data acquisition was done using LabScribe software (iWorks Systems) and the data transferred to GraphPad Prism (GraphPad Software) for traces analysis and dose-response curve fitting.

[2] = biological target: R. microplus nAChRα5 (Rmα5) homopentamers (Rhipicephalus microplus, UniProt A0A223PM17, I539V); type: cell-based
Chain of R. microplus nAChRα5 (Rmα5) homopentamers (A0A223PM17 entry or part of it I539V): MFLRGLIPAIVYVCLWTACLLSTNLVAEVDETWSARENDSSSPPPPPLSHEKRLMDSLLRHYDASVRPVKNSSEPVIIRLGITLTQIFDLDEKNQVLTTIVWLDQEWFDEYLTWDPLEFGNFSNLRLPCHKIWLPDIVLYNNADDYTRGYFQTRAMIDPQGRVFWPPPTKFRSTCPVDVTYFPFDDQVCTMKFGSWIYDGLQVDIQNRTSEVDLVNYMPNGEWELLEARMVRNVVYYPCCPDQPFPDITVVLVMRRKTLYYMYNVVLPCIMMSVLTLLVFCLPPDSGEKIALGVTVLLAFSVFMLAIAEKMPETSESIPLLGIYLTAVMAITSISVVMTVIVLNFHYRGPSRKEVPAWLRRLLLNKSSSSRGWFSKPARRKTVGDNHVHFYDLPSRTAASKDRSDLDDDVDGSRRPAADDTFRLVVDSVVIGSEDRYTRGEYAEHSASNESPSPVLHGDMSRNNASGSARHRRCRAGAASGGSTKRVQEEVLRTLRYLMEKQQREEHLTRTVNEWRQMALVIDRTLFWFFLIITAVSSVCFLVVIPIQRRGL
Experimental: as §1, §2, §3

Chain of R. microplus nAChRα6 (Rma6) homopentamers (A0A223PM23 entry or part of it): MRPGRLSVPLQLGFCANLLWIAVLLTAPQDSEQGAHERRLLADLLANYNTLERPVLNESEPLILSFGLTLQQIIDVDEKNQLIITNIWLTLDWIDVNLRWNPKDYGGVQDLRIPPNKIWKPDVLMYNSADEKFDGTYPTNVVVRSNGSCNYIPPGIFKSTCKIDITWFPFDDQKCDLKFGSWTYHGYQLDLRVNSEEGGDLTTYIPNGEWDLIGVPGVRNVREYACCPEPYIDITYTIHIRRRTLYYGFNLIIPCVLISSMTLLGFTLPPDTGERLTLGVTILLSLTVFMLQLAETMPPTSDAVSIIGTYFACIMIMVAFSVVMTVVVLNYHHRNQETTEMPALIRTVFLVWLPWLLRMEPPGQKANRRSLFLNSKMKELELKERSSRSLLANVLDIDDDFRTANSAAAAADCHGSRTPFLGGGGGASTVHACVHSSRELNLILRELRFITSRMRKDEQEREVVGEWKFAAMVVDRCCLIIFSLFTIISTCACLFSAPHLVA

CC(=O)OCC[N+](C)(C)C [ACh, acetylcholine]
EC50 ([1]; membrane potential clamped at −60 mV, dose-response curve, read-out: EC50 (activation of Rma6 receptor)): 1970 ± 1200 nM

O=[N+]([O-])NC1=NCCN1Cc1ccc(Cl)nc1 [Imidacloprid, imidacloprid]
action on Rma6 receptor [1]: partial agonist
character of responses on Rma6 [1]: small, non-desensitizing responses
action on Rma6 receptor ([1]; listed as imidacloprid): induced responses

spinosad
action on Rma6 receptor [1]: does not directly activate; also recorded: type II allosteric modulator
EC50 of spinosad lower than ACh EC50 (fold) ([2]; Rmα5 receptor): over 10 times
action on Rmα5 receptor ([2]; Xenopus oocytes): higher efficacy than ACh; also recorded: agonist
character of responses on Rmα5 ([2]; Xenopus oocytes, ACh 300 μM, spinosad 30 μM representative traces): large and also non-desensitizing
time to response plateau ([2]; during application): around 30 s
time to first signs of depolarization ([2]; during perfusion): about 15 s
